From patent US20230210853A1 (Halia Therapeutics, Inc., priority 2020, published 2023)
pIC50: −log10 of the molar value. Where two headings read alike, the source gives them in different places.

Experiments:
[1] = biological target: T1, full-length recombinant human NEK7 (Homo sapiens, UniProt Q8TDX7); experiment: NEK7 enzymatic assay ([33P]-ATP, casein substrate); assay type: biochemical; conditions: recombinant human NEK7, casein substrate
T1 construct: full-length recombinant human NEK7; GST (N); purchased SignalChem N09-10G; host or cells: Sf9 insect cells (baculovirus)
T1 sequence (Q8TDX7 whole entry): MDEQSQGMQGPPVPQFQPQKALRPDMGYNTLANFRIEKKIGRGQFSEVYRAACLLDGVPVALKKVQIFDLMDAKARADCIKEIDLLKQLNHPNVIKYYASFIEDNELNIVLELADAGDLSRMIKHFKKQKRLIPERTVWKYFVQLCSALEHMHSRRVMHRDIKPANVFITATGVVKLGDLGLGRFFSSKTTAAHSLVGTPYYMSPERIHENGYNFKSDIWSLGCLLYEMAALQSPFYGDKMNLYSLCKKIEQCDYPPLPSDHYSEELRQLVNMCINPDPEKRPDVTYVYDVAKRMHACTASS
Method in brief: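 Serially diluted compounds (10 μM down to 0.5 nM, 3-fold) were preincubated 20 min at room temperature with N-terminal GST-NEK7 from Sf9 cells and casein in pH 7.5 Hepes/MgCl2/EGTA/Brij35/DTT buffer containing 1% DMSO. [33P]-ATP then started a 2 h room-temperature reaction, stopped by spotting onto P81 paper. IC50 came from percent activity remaining versus vehicle.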

IL-1β release = IL-1β release assay (PMA-differentiated THP-1 cells, LPS + nigericin, cleaved IL-1β by JESS); assay type: cell-based; conditions: Homo sapiens, THP-1 cells, LPS + nigericin, read-out: IL-1β release IC50
Protocol: (§1) Approximately 1.5 million THP-1 cells were plated in each well of a 6-well TC plate and incubated with 40 nM PMA in RPMI (10% FBS, 1% Penstrep) for 24 hours. The media was then removed and cells were rested in RPMI (10% FBS, 1% Penstrep) for 24 hours after which time the media was removed and cells were pre-treated for 2 hours with various concentrations of compounds of interest (typically serial 3-fold dilution in RPMI +5% FBS, concentrations ranging from 1 μM to 0.5 nM) in RPMI (5% FBS). The media was again removed and cells were incubated with 250 ng/mL LPS and compounds of interest (concentrations as above) in RMPI (5% FBS) for 2 hours. The media was removed for a last time and cells were incubated with 20 μM nigericin and compounds of interest (concentrations as above) in Opti-MEM for 30 minutes. Cell media was then collected and the amount of cleaved IL-1β was determined using a JESS instrument (Protein Simple) and standard protocols. Cleaved 1-PD antibody was obtained from Cell Signaling (catalogue #83186S) and was used at 1:20 dilution in antibody diluent 2. Protein Simple 1× anti-Rabbit HRP secondary antibody was used along with Protein Simple luminol and peroxide for chemiluminescent detection. Primary antibody incubation time was increased from 30 minutes to 60 minutes.
as §1, with “RPMI+5%” for “RPMI +5%”, “Il-1β” for “1-PD”

Structure (SMILES) | pIC50 ([1]; Table 2d) | pIC50 (IL-1β release; 48 h, Table 2d) | pIC50 ([1]; Table 2e) | pIC50 (IL-1β release; Table 2e)
Nc1ncnc2c1c(-c1ccc(NC(=O)Nc3ccc(CN4CCOCC4)c(C(F)(F)F)c3)c(F)c1)cn2C1CC1 [Id-31, 1-(4-(4-amino-7-cyclopropyl-7H-pyrrolo[2,3-d]pyrimidin-5-yl)-2-fluorophenyl)-3-(4-(morpholinomethyl)-3-(trifluoromethyl)phenyl)urea] | 5.82 to 6.30 | 6.30 to 6.52 | – | –
CN1CCN(Cc2ccc(NC(=O)Nc3ccc(-c4cn(C5CC5)c5ncnc(N)c45)cc3F)cc2C(F)(F)F)CC1 [Id-33, 1-(4-(4-amino-7-cyclopropyl-7H-pyrrolo[2,3-d]pyrimidin-5-yl)-2-fluorophenyl)-3-(4-((4-methylpiperazin-1-yl)methyl)-3-(trifluoromethyl)phenyl)urea] | > 6.82 | > 6.82 | – | –
CN1CCN(Cc2ccc(NC(=O)Nc3ccc(Oc4ccnc5[nH]cc(Cl)c45)cc3F)cc2C(F)(F)F)CC1 [Ie-1, 1-(4-((3-chloro-1H-pyrrolo[2,3-b]pyridin-4-yl)oxy)-2-fluorophenyl)-3-(4-((4-methylpiperazin-1-yl)methyl)-3-(trifluoromethyl)phenyl)urea] | – | – | 6.52 to 6.82 | > 6.82
CN1CCN(Cc2ccc(NC(=O)Nc3ccc(Oc4ccnc5[nH]cc(C6CC6)c45)cc3F)cc2C(F)(F)F)CC1 [Ie-26, 1-(4-((3-cyclopropyl-1H-pyrrolo[2,3-b]pyridin-4-yl)oxy)-2-fluorophenyl)-3-(4-((4-methylpiperazin-1-yl)methyl)-3-(trifluoromethyl)phenyl)urea] | – | – | 5.82 to 6.30 | > 6.82
Cc1c[nH]c2nccc(Oc3ccc(NC(=O)Nc4ccc(CN5CCN(C)CC5)c(C(F)(F)F)c4)c(F)c3)c12 [Ie-28, 1-(2-fluoro-4-((3-methyl-1H-pyrrolo[2,3-b]pyridin-4-yl)oxy)phenyl)-3-(4-((4-methylpiperazin-1-yl)methyl)-3-(trifluoromethyl)phenyl)urea] | – | – | 6.52 to 6.82 | 6.52 to 6.82

Further lines, results first:

pIC50 ([1]; Table 2d) | pIC50 (IL-1β release; 48 h, Table 2d) | pIC50 ([1]; Table 2e) | pIC50 (IL-1β release; Table 2e) | Structure (SMILES)
6.52 to 6.82 | < 6.00 | – | – | CN1CCN(C(=O)c2ccc(NC(=O)Nc3ccc(-c4nn(C5CC5)c5ncnc(N)c45)cc3F)cc2C(F)(F)F)CC1 [Id-48]
> 6.82 | > 6.82 | – | – | CCN1CCN(Cc2ccc(NC(=O)Nc3ccc(-c4nn(C5CC5)c5ncnc(N)c45)cc3F)cc2C(F)(F)F)CC1 [Id-49]
– | – | 5.82 to 6.30 | > 6.82 | CCN1CCN(Cc2ccc(NC(=O)Nc3ccc(Oc4ccnc5[nH]cc(Cl)c45)cc3F)cc2C(F)(F)F)CC1 [Ie-9, 1-(4-((3-chloro-1H-pyrrolo[2,3-b]pyridin-4-yl)oxy)-2-fluorophenyl)-3-(4-((4-ethylpiperazin-1-yl)methyl)-3-(trifluoromethyl)phenyl)urea]
– | – | 6.52 to 6.82 | > 6.82 | CN1CCC(Oc2ccc(NC(=O)Nc3ccc(Oc4ccnc5[nH]cc(Cl)c45)cc3F)cc2C(F)(F)F)CC1 [Ie-16, 1-(4-((3-chloro-1H-pyrrolo[2,3-b]pyridin-4-yl)oxy)-2-fluorophenyl)-3-(4-((1-methylpiperidin-4-yl)oxy)-3-(trifluoromethyl)phenyl)urea]
– | – | 6.30 to 6.52 | > 6.82 | CN1CCC(=Cc2ccc(NC(=O)Nc3ccc(Oc4ccnc5[nH]cc(Cl)c45)cc3F)cc2C(F)(F)F)CC1 [Ie-20, 1-(4-((3-chloro-1-pyrrolo[2,3-b]pyridin-4-yl)oxy)-2-fluorophenyl)-3-(4-((1-methylpiperidin-4-ylidene)methyl)-3-(trifluoromethyl)phenyl)urea]
– | – | 6.30 to 6.52 | > 6.82 | Cc1[nH]c2nccc(Oc3ccc(NC(=O)Nc4ccc(CN5CCN(C)CC5)c(C(F)(F)F)c4)c(F)c3)c2c1Cl [Ie-27, 1-(4-((3-chloro-2-methyl-1H-pyrrolo[2,3-b]pyridin-4-yl)oxy)-2-fluorophenyl)-3-(4-((4-methylpiperazin-1-yl)methyl)-3-(trifluoromethyl)phenyl)urea]
